System: human epithelial cells
Experiment: clonal growth of human epithelial cells in cell culture over 7 days (surviving colonies counted)
Assay type: cell-based
Excerpt: Therefore, before the comparison of results based on rigidity of older cells against younger and more elastic cells, the proper concentration of the drug must be found. Dissolved in an appropriate solvent (for example, dimethylsulfoxide for Cytochalasin D, B and Latrunculin A, B, Jasplakinolide), the drug should be added to the cell culture medium. […] The amount of the drug should not be in such a high concentration that would result in the destruction of the cells. As an example, when the treatment of the old cells is done with Cytochalasin B, a cell permeable fungal toxin which binds to the barbed end of actin filaments and results in the inhibition of both the association and dissociation of its subunits, a 4 μg/mL solution of Cytochalasin B in the medium was optimal to treat viable cells for 12 hours. This concentration was determined by performing experiments to measure clonal growth of human epithelial cells in cell culture over 7 days in different concentrations of the drug. The number of surviving colonies of cells was counted to determine the range of concentrations that were non-toxic or non-cytostatic. This range was from 1.0 to 10 μg/mL. The determination of the appropriate concentration of a cytotoxic drug is dependent upon the particular drug of choice, but one skilled in the art would recognize methods to determine the appropriate drug concentration.

C=C1[C@@H](C)[C@H]2[C@H](Cc3ccccc3)NC(=O)[C@]23OC(=O)/C=C/[C@H](O)CCC[C@@H](C)C/C=C/[C@H]3[C@@H]1O [Cytochalasin B]
range of concentrations that were non-toxic or non-cytostatic (clonal growth over 7 days in different concentrations of the drug, number of surviving colonies counted): 1.0 to 10 µg/mL
optimal concentration in the medium to treat viable cells (old cells, treatment for 12 hours, solution in the medium): 4 µg/mL

Reference: patent publication US20050277696A1, “Novel use of cytotoxic drugs for treatment and prophylasxis of aging diseases by reversing the loss of elasticity of epithelial cells due to aging” (priority 2004, published 2005)
